# Tested on: GSCs from patient derived xenograft 08-387
# Experiment: Measurement of microtubule dynamics, EB1-EGFP
# Type: cell-based, human
# Conditions: 200 nM; 7 hours
# Procedure: GSCs from patient derived xenograft 08-387 were cultured in Neurobasal Media, as previously described. Cells were plated on tissue culture dishes coated with GelTrex (Gibco®, Life Technologies, Carslbad, Calif.) and transfected with EB1-EGFP plasmid using FuGene® HD transfection reagent (Promega Corporation, Madison, Wis.) in a 3:1 (FuGene:DNA) ratio. Cells were transferred to GelTrex-coated 35 mm No. 1.5 glass MatTek dishes (MatTek Corporation, Ashland, Mass.) at a density of 50,000 cells per dish 48 hours following transfection, and allowed to adhere overnight prior to imaging. Dynamics measurements were obtained at 30 minutes and 7 hours following addition of vehicle (DMSO) or ispinesib (200 nM) to cell culture media.
# Streaming time-lapse images of EB1-EGFP-expressing cells were acquired at 300 ms per frame for 1 minute (200 total frames) at using a Nikon TiE epifluorescence microscope (Nikon Instruments Inc., Melville, N.Y.) equipped with a Zyla 5.5 sCMOS camera (Andor Technology Ltd., Belfast, Ireland) under control of NIS Elements software (Nikon). Fluorescence illumination during imaging was provided by a SpectraX Light Engine® (Lumencor Inc., Beaverton, Oreg.) and a GFP/mCherry filter set (Chroma Technology Corp., Bellows Falls, Vt.). […]
structure (smiles),measurement,value
"Cc1ccc(C(=O)N(CCCN)[C@@H](c2nc3cc(Cl)ccc3c(=O)n2Cc2ccccc2)C(C)C)cc1 [ispinesib, N-(3-amino-propyl)-n-[R-1-(3-benzyl-7-choloro-4-oxo-3,4-dihydroquinazolin-2-yl)-2-methyl-propyl]-4-methyl-benzamide methanesulfonate]",EB1 comet velocity,significant increase
same,microtubule growth times,reduced microtubule growth times
